The target of the test is DDX41 (Homo sapiens, UniProt Q9UJV9). Particulars: labelled compound ([γ-32P]ATP).

The record followed here is publication PMC9205463 (Cell reports, 2022).

DDX41, sequence (Q9UJV9 whole entry): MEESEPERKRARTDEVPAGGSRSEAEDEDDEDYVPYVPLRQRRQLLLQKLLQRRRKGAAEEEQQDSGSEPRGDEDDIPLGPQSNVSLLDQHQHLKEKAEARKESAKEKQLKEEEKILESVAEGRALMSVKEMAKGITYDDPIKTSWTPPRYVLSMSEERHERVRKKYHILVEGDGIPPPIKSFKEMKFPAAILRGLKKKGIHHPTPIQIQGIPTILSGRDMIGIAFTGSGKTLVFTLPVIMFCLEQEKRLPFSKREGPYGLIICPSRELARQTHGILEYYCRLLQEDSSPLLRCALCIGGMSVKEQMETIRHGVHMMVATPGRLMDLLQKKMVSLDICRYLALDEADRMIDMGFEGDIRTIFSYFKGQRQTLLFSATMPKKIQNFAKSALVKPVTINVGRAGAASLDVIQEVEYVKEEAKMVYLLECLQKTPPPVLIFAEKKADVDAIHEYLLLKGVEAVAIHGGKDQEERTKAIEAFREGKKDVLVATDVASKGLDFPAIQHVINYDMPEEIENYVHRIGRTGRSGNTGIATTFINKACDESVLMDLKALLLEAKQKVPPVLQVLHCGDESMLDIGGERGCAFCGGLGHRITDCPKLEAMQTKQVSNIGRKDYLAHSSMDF

On to `Nc1ncnc2c1ncn2[C@@H]1O[C@H](COP(=O)(O)OP(=O)(O)OP(=O)(O)O)[C@@H](O)[C@H]1O` [ATP], for which the “filter binding (dot blot); ATP-agarose pull-down” value is on record as “we incubated the same amount of WT or R525H proteins with ATP agarose”.
